Test results: publication PMC3691018 (Bioorganic & medicinal chemistry letters, 2013)

Biological target: Bacillus anthracis DNA replicative helicase (Bacillus anthracis, UniProt A0A0J1HKT7)
Experiment: biochemical
Assay type: biochemical

Row | SMILES | Activity vs B. anthracis helicase (in words) | IC50 [µM]
1 | COc1cc(/C=N/c2nc3ccc4nc(SC)sc4c3s2)cc(OC)c1OC [Compound 65] | lost activities | > 100
2 | COc1cccc(C(=O)Nc2nc3ccc4nc(NCc5ccccc5)sc4c3s2)c1 [Compound 54] | significantly reduced activity | –
3 | COc1cccc(C(=O)Nc2nc3ccc4nc(NC(C)C)sc4c3s2)c1 [Compound 51] | significantly reduced activity | –
4 | COc1cccc(C(=O)Nc2nc3ccc4nc(NC5CCCCC5)sc4c3s2)c1 [Compound 53] | significantly reduced activity | –
5 | COc1cccc(C(=O)Nc2nc3ccc4nc(NCC(C)C)sc4c3s2)c1 [Compound 52] | modest inhibition | –
6 | COc1cc(CNc2nc3ccc4nc(SC)sc4c3s2)cc(OC)c1OC [Compound 64] | lost activities | > 100

System: HeLa
Experiment: not given
Assay type: cell-based

Row | SMILES | Selectivity index (SI = CC50/IC50)
7 | CNc1nc2ccc3nc(NC(=O)c4cc(OC)c(OC)c(OC)c4)sc3c2s1 [Compound 59] | greater than 500
